In brackets after ≈: the same amount, converted by molar mass.
Experiments:
[1] = tested on: E. Coli (DSM 1576); experiment: MIC study on agar, bacterial strain; type: cell-based, Escherichia coli
Protocol: (§1) Equal amounts of mixtures were poured into four Petri dishes. After cooling, the Petri dishes were inoculated with the respective standard strains. During the experiment, the Petri dishes were kept for 2 to 3 weeks at room temperature of about 20 to 25° C. in the dark. The following two different types of culture media were employed for the present studies: • i. […] The preferred bacterial strains for the present application are Pseudomonas aeruginosa (DSM 1128), Staphylococcus aureus (DSM 799), E. Coli (DSM 1576), Proteus mirabilis (DSM 788) and Burkholderia cepacia (DSM 7288), and the preferred fungal strains are Aspergillus brasiliensis (DSM 1988), Penicillium expansum (DSM 1282), Trichoderma viride (DSM 63064), and the yeast is Candida albicans, (DSM 1386). After 2nd and 3rd weeks macroscopic evaluations were performed, the ratings are as follows: The formulation under examination is considered to be efficient if the following conditions are duly fulfilled i.e. (i) after 2-3 weeks no growth of the tested culture is visible; (ii) with rising concentration of the tested formulation, the germ growth should macroscopically be reduced until it is not visible any more.

[2] = tested on: Penicillium expansum (DSM 1282); experiment: MIC study on agar, fungal strain; type: cell-based; settings: DSM1282, Penicillim expansum, Malt extract-Agar (3%) pH 5.6, 2 to 3 weeks at 20 to 25° C. in the dark
Protocol: as §1

[3] = tested on: Trichoderma viride (DSM 63064); experiment: MIC study on agar, fungal strain; type: cell-based
Protocol: as §1

[4] = tested on: Aspergillus brasiliensis (DSM 1988); experiment: MIC study on agar, fungal strain; type: cell-based
Protocol: as §1

[5] = tested on: Burkholderia cepacia (DSM 7288); experiment: MIC study on agar, bacterial strain; type: cell-based
Protocol: as §1

[6] = tested on: Proteus mirabilis (DSM 788); experiment: MIC study on agar, bacterial strain; type: cell-based; settings: DSM788, Caso-Agar pH 7.3, 2 to 3 weeks at 20 to 25° C. in the dark
Protocol: as §1

[7] = tested on: Staphylococcus aureus (DSM 799); experiment: MIC study on agar, bacterial strain; type: cell-based; settings: DSM799, Caso-Agar pH 7.3, 2 to 3 weeks at 20 to 25° C. in the dark
Protocol: as §1

[8] = tested on: Pseudomonas aeruginosa (DSM 1128); experiment: MIC study on agar, bacterial strain; type: cell-based; settings: DSM1128, Caso-Agar pH 7.3, 2 to 3 weeks at 20 to 25° C. in the dark
Protocol: as §1

[9] = tested on: Candida albicans, (DSM 1386); experiment: MIC study on agar, yeast strain; type: cell-based; settings: DSM1386, Candida albican, Malt extract-Agar (3%) pH 5.6, 2 to 3 weeks at 20 to 25° C. in the dark
Protocol: as §1

O=c1cccccc1O [Tropolone, 2-Hydroxy-2,4,6-cycloheptatrien-1-one]
MIC ([1]; DSM1576, Escherichia coli, Caso-Agar pH 7.3, 2 to 3 weeks at 20 to 25° C. in the dark): 250 µg/mL (≈ 2050 µM)
reduction of MIC level of tropolone ([1]; in presence of 1,3-propanediol (Zemea), against Escherichia coli): > 50%
MIC [2]: 100 µg/mL (≈ 819 µM)
MIC ([3]; DSM63064, Trichoderma viride, Malt extract-Agar (3%) pH 5.6, 2 to 3 weeks at 20 to 25° C. in the dark): 250 µg/mL (≈ 2050 µM)
reduction of MIC level of tropolone ([3]; by sorbitan caprylate (Velsan SC), against Trichoderma viride): > 50%
MIC ([4]; DSM1988, Aspergillus brasiliensis, Malt extract-Agar (3%) pH 5.6, 2 to 3 weeks at 20 to 25° C. in the dark): 50 µg/mL (≈ 409 µM)
reduction of MIC level of tropolone ([4]; by sorbitan caprylate (Velsan SC), against Aspergillus brasiliensis): > 50%
MIC ([5]; DSM7288, Burkholderia cepacia, Caso-Agar pH 7.3, 2 to 3 weeks at 20 to 25° C. in the dark): 250 µg/mL (≈ 2050 µM)
reduction of MIC level of tropolone ([5]; by sorbitan caprylate (Velsan SC), against Burkholderia cepacia): > 90%
MIC [6]: 250 µg/mL (≈ 2050 µM)
MIC [7]: 250 µg/mL (≈ 2050 µM)
MIC [8]: 500 µg/mL (≈ 4090 µM)
MIC [9]: 20 µg/mL (≈ 164 µM)

Reference: US9226882B2, “Eco-friendly non-aqueous antimicrobial composition comprising tropolone with 1,3-propanediol and/or sorbitan caprylate” (ISP INVESTMENTS INC., priority 2012, dated 2016)
